# Values quoted from earlier work as cited in patent publication US11690524B2, “Assessment of iron deposition post myocardial infarction as a marker of myocardial hemorrhage” (Cedars-Sinai Medical Center, priority 2011, dated 2023).
# What was measured:
# [1] = qualitative statement
# [2] = system: post MI patients; conditions: 6 months of therapy, TACT trial
half-life in plasma / plasma life [1],SMILES,effect on MACE (major adverse cardiovascular events) [2]
short,CC(=O)N(O)CCCCCNC(=O)CCC(=O)N(O)CCCCCNC(=O)CCC(=O)N(O)CCCCCN [deferoxamine],–
longer,Cc1c(O)c(=O)ccn1C [Deferiprone],–
–,O=C(O)CN(CCN(CC(=O)O)CC(=O)O)CC(=O)O [EDTA],did not decrease MACE
